Measured values taken from article PMC11808136, “Screening and identification of host signaling pathways for alleviating influenza-induced production of pro-inflammatory cytokines, IP-10, IL-8, and MCP-1, using a U937 cell-based influenza model” (Frontiers in Microbiology, 2025).
Where a name gives a salt, the structure may show the parent alone. Read-outs that look alike come from different tables or passages of the source.

How the values were obtained:
[1] = test system: MCP-1 production in influenza virus-infected U937 cells (H1N1); experiment: cells; assay type: cell-based
[2] = in vitro; conditions: human
[3] = test system: IP-10 production in influenza virus-infected U937 cells (H1N1); experiment: cells; assay type: cell-based
[4] = test system: IL-8 production in influenza virus-infected U937 cells (H1N1); experiment: cells; assay type: cell-based, Human
[5] = test system: U937 cells
[6] = Homo sapiens, U-937, secondary screen, Supplemental Table 1, read-out: EC50 MCP-1
[7] = CC50, secondary screen, Supplemental Table 1
[8] = Homo sapiens, U-937, secondary screen, Supplemental Table 1, read-out: EC50 IP-10
[9] = Homo sapiens, U-937, secondary screen, Supplemental Table 1, read-out: EC50 IL-8
[10] = Homo sapiens, U-937, read-out: EC50 MCP-1
[11] = Homo sapiens, U-937, read-out: EC50 IP-10
[12] = secondary screen, Supplemental Table 1, read-out: EC50 MCP-1
[13] = secondary screen, Supplemental Table 1, read-out: EC50 IP-10
[14] = secondary screen, Supplemental Table 1
[15] = secondary screen, Supplemental Table 1, read-out: EC50 IL-8
[16] = Homo sapiens, U-937, read-out: EC50 IL-8

Row | Compound | EC50 [1, 6] [nM] | CC50 [2, 7] [nM] | EC50 [3, 8] [nM] | EC50 [4, 9] [nM] | EC50 [1, 12] [nM] | EC50 [3, 13] [nM] | CC50 [5, 14] [nM] | EC50 [4, 15] [nM] | also measured
1 | C[C@@H](Oc1ccc2[nH]nc(/C=C/c3cnn(CCO)c3)c2c1)c1c(Cl)cncc1Cl [LY2874455] | < 5 | 3400 | < 5 | < 5 |  |  |  |  | 
2 | CNS(=O)(=O)C[C@H]1CC[C@H](N(C)c2ncnc3[nH]ccc23)CC1 [Oclacitinib] |  | 50000 |  | 50 |  |  |  |  | EC50 [1, 10]: 190 nM; EC50 [3, 11]: 180 nM
3 | NC(=O)c1cnc2[nH]ccc2c1N[C@@H]1[C@@H]2CC3C[C@H]1C[C@@](O)(C3)C2 [Peficitinb (ASP015K, JNJ-54781532), Peficitinb] |  |  |  |  | 10 | 20 | 34700 |  | 
4 | CCOc1cc2ncc(C#N)c(Nc3ccc(F)c(Cl)c3)c2cc1NC(=O)/C=C/CN(C)C [Pelitinib (EKB-569), Pelitinib] | 20 | 1700 | 130 |  |  |  |  |  | 
5 | C=CC(=O)N1CCC(Oc2cc3c(Nc4ccc(Cl)c(Cl)c4F)ncnc3cc2OC)CC1 [Poziotinib (HM781-36B), Poziotinib] | 660 | 24100 | 570 | 340 |  |  |  |  | 
6 | COc1cc(Nc2ncc(F)c(Nc3ccc4c(n3)NC(=O)C(C)(C)O4)n2)cc(OC)c1OC [R406 (free base)] |  |  |  |  | 1130 | 700 | > 100000 | 2750 | 
7 | COc1cc(Nc2ncc(F)c(Nc3ccc4c(n3)N(COP(=O)(O)O)C(=O)C(C)(C)O4)n2)cc(OC)c1OC [R788 (Fostamatinib) Disodium] |  |  |  |  | 160 | 390 | 7400 | 60 | 
8 | CNC(=O)c1cc(Oc2ccc(NC(=O)Nc3ccc(Cl)c(C(F)(F)F)c3)c(F)c2)ccn1 [Regorafenib (BAY 73-4506), Regorafenib] | 1710 | 20000 | 1800 | 610 |  |  |  |  | 
9 | N#CC[C@H](C1CCCC1)n1cc(-c2ncnc3[nH]ccc23)cn1 [Ruxolitinib (INCB018424), Ruxolitinib] | 30 |  | 70 |  |  |  |  |  | CC50 ([2]; CC50): 100000 nM; EC50 [4, 16]: 120 nM
10 | Cc1cc(Nc2ncc3c(n2)N(C)C(=O)N(c2cc(NC(=O)c4cccc(C(F)(F)F)c4)ccc2C)C3)n(C)n1 [SC1] |  |  |  |  | 40 | 10 | > 100000 | < 5 | 
11 | Cc1c[nH]c2nc(Nc3ccc(N4CCN(C)CC4)c(F)c3)nc(-c3cccc(CC#N)c3)c12 [SGI-7079] |  |  |  |  | < 5 | < 5 | 3850 | < 5 | 
12 | CCN(CC)CCNC(=O)c1c(C)[nH]c(/C=C2\C(=O)Nc3ccc(F)cc32)c1C [Sunitinib Malate] | 350 | 24900 | 660 | 50 |  |  |  |  | 
13 | Cn1c(=O)c(F)c(Nc2ccc(I)cc2F)c2c(=O)n(C[C@@H](O)CO)cnc21 [TAK-733] | 40 |  | 1400 |  |  |  |  |  | CC50 ([2]; CC50): 45000 nM; EC50 [4, 16]: < 5 nM
14 | NC(=O)Nc1sc(-c2ccc(F)cc2)cc1C(N)=O [TPCA-1] |  |  |  |  | 120 | 70 | 11000 | 280 | 
15 | C[C@@H]1CCN(C(=O)CC#N)C[C@@H]1N(C)c1ncnc2[nH]ccc12 [Tofacitinib (CP-690550) Citrate] |  |  |  |  |  |  | > 100000 |  | 
16 | C[C@@H]1CCN(C(=O)CC#N)C[C@@H]1N(C)c1ncnc2[nH]ccc12 [Tofacitinib] |  |  |  |  |  |  |  |  | CC50 ([2]; CC50): > 100000 nM
17 | CC(C)(C)c1cc(C=C(C#N)C#N)cc(C(C)(C)C)c1O [Tyrphostin 9] |  |  |  |  | 80 | 90 | 8260 | 40 | 
18 | C=CC(=O)Nc1cccc(Oc2nc(Nc3ccc(N4CCN(C)CC4)cc3)ncc2Cl)c1 [WZ3146] |  |  |  |  | < 5 | 680 |  | 10 | CC50 [5]: 14000 nM
19 | O=C(Nc1ccc(-c2ccnc(Nc3ccc(N4CCOCC4)cc3)n2)cc1)C1CCCN1 (centres unmarked) [XL019] |  | 26700 |  | 510 |  |  |  |  | EC50 [1, 10]: 940 nM; EC50 [3, 11]: 990 nM
20 | S-Ruxolitinib [S-Ruxolitinib (INCB018424)] |  |  |  |  |  |  |  |  | EC50 ([1]; read-out: EC50 MCP-1): 60 nM; EC50 ([3]; read-out: EC50 IP-10): 80 nM; EC50 ([4]; read-out: EC50 IL-8): 30 nM
